The test system of assay [1] is PC12-HS cells. The assay can be described thus: Intracellular ROS production after hydrogen peroxide stimulation (CM-H2DCFDA). In kind it is cell-based, rat. The conditions noted are these: for intercellular ROS production (%): 50 μM hydrogen peroxide only = 100%; for inhibitory effect on intercellular ROS production (in words): 125 to 1,000 nM. The text has this: From the above-mentioned Experiment 1-1 and Experiment 1-2, it was shown that NK-5 (Chemical formula 2), NK-5 analogs (Chemical formula 3 and Chemical formula 5) and NK-6 (Chemical formula 7) have strong neurocyte growth acceleration activity and neurite-outgrowth promoting activity, and therefore, it was verified by the following experiment whether these compounds also act effectively on oxidative damage to neurocyte. That is, PC12-HS cells were oxidatively stimulated with hydrogen peroxide, and the intracellular ROS generated at that time was quantified using a fluorescent reagent, and the inhibitory effect of the dye compounds on intercellular ROS production, when an external oxidative stress was applied, was evaluated.
Similar to Experiment 1-1 and Experiment 1-2, precultured PC12-HS cells were cultured for 24 hours with test compounds diluted in culture medium at final concentrations of 125, 250, 500 and 1000 nM. Thereafter, the culture supernatant was removed, the cells were washed with Hank's buffer (60 μM CaCl2), 400 μM MgSO4, 500 μM MgCl2), and then 100 μl of ROS detection reagent CM-H2DCFDA (commercialized by FUJIFILM Wako Pure Chemical Corporation, Tokyo, Japan) adjusted to 5 μM with the same buffer, was added to each well. The PC12-HS cells were cultured at 37° C. for 30 minutes to allow the cells to take up CM-H2DCFDA, and then, the solution containing CM-H2DCFDA was removed. Then, the cells were washed with Hank's buffer, and then added 50 μM of hydrogen peroxide (commercialized by FUJIFILM Wako Pure Chemical Corporation, Tokyo, Japan) diluted with Hank's buffer in a volume 100 μl/well and stimulated at 37° C. for 2 hours. The solution containing hydrogen peroxide was removed, then an 200 μl of Hank's buffer was added to each well, and the cells were measured for fluorescent intensity at a wavelength of 492-527 nm, which is an index of intracellular ROS production, by a fluorescence microplate reader. In addition, after measuring the fluorescence intensity, the cells were fixed by adding 20 μl of glutaraldehyde to each well, and the amount of methylene blue dye uptake was measured as an absorbance at 650 nm, according to a conventional method, the result was used as an index of the number of living cells. The amount of ROS production per cell was indicated by the value that fluorescence intensity (492-527 nm) was divided by the absorbance at 650 nm in each well. The amount of ROS production per cell calculated from cells to which only hydrogen peroxide was added without containing the test compound as a negative control, was set as 100%, and the relative value when the test compound was added was determined, and is shown in Table 3, as the ROS production rate (%) per cell of each well. Measurements were performed for each concentration of each test compound in triplicate, and the mean values were described.

Assay [2] concerns PC12-HS cells. The assay can be described thus: Evaluation method B: neurite-outgrowth promoting activity in the presence of NGF. In kind it is cell-based, rat. The conditions noted are these: for Neurite-outgrowth rate (%) / Action on PC12-HS neurite-outgrowth promotion (500 ng/ml): NGF 10 ng/ml; for Action on PC12-HS neurite-outgrowth promotion (500 ng/ml): 3 days, class of neurite-outgrowth rate; for neurite-outgrowth promoting activity (in words): 200 and 1,000 nM, comment on Table 2. The text has this: As a model of the nerve cell, the NGF (nerve growth factor) highly sensitive strain of PC12 cell derived from the rat adrenal pheochromocytoma (hereinafter referred to as “PC12-HS cell”; JCRB cell bank, National Research and Development Institute of Health and Nutrition), which has been widely used as a suitable model for research on human neurodegenerative disease, was used. As the test compound, […] of trimethine cyanine dye compounds; NK-5 (Chemical formula 2), NK-36 (Chemical formula 3), NK-44 (Chemical formula 5) and dye compounds represented by Chemical formulae 12 to 18, and NK-6 (Chemical formula 7), which is a monomethine cyanine dye, were selected. In addition, two kinds of ethylene cross-linked dyes (Chemical formulae 19 and 20), 15 kinds of monomethine cyanine dyes (Chemical formulae 21 to 35), and seven kinds of trimethine cyanine dyes (Chemical formulae 36 to 42), which were expected to have a good neurocyte growth acceleration activity and/or neurite-outgrowth promoting activity in the screening disclosed in Patent literature 6, were also re-evaluated for comparison. The Chemical formulae 12 to 42 are shown below.
The cyanine dye compounds subjected to the test (purity 97% by mass or more, synthesized by Hayashibara Co., Ltd., Okayama, Japan) were individually dissolved in DMSO (product number “D8418”, commercialized by SIGMA Corporation) at a concentration of 5 mg/ml, and the solutions were then filtered through DMSO-resistant membrane (“Millex-LGS LLG025SS”, commercialized by Millipore Corporation) and stored at 25° C. in a dark condition. At the time of use, they were further diluted with Dulbecco's Medium (hereinafter, abbreviated as “D-MEM medium”, commercialized by Nissui Pharmaceutical Co., Ltd.) supplemented by 10% by volume of fetal bovine serum (FBS), and subjected to the test.
As in the case of evaluation of neurocyte growth accelerating activity (Evaluation method A), 50 μl/well of each test compound solution, prepared by diluting with the culture medium to give a final concentration of 500 ng/ml, and the culture medium containing 20 ng/ml of mouse NGF (mouse derived, final concentration 10 ng/ml, commercialized by Chemicon International, Inc., CA, USA) (50 μl/well) were added to the precultured PC12-HS cells in each well, and then cultured for three days. Culture medium was removed on day 3 of culture, and cells were fixed by adding 100 μl/well of 10% by volume of glutaraldehyde and standing for 20 minutes at room temperature. As a negative control, PC12-HS cells, cultured for three days with culture medium, were fixed with glutaraldehyde similarly as above. Fixed cells were observed under a microscope to assess the neurite-outgrowth. The neurite-outgrowth rate (%) was determined by observing the cells using a microscope by adjusting the magnitude to give about 100 cells in one visual field, counting the number of cells having neurites twice or more in length of the cell body (major axis), dividing by the total number of cells in the same visual field, and multiplying by 100. Measurements were carried out at three points for each test compound. […] In this experiment, the neurite-outgrowth rate was 5% or less when NGF was added (final concentration 10 ng/ml) without the addition of the test compound.
The method was based on Experiment 1-1, except the concentrations of the test compounds were set to three doses of 40 nM, 200 nM and 1,000 nM for evaluation method A (neurocyte growth accelerating effect), and two doses of 200 nM and 1,000 nM for evaluation method B (neurite outgrowth promoting effect). Measurements were performed in triplicate for each concentration of each test compound in both evaluation methods A and B. The result of the evaluation method A was expressed as a cell proliferation rate (%) by determined a relative percentage (%) when the value of the negative control to which the test compound was not added, was regarded as 100%. […]

On to `CCN1C=CC(=Cc2cc[n+](CC)c3ccccc23)c2ccccc21.[I-]` [NK-6], for which the “intercellular ROS production (%)” value in assay [1] (125 nM) was 108.6%; in assay [1] (250 nM) it was 81.2%; in assay [1] (500 nM), 69.8%; in assay [1] (1,000 nM), 66.2%. The “inhibitory effect on intercellular ROS production (in words)” value (shortened to “inhibitory effect”) in assay [1] is reported as “suppressed the intercellular ROS production induced by hydrogen peroxide stimulation, in a concentration-dependent manner”. Besides, the “Neurite-outgrowth rate (%)” value in assay [2] (1.000 nM) is 41.5%; in assay [2] (200 nM), 32.6%. The “Action on PC12-HS neurite-outgrowth promotion (500 ng/ml)” value (“Action” for short) in assay [2] is recorded as “⊚ (45% or more was judged to be more potent than NK-4 (“double circle”))”. The “neurite-outgrowth promoting activity (in words)” value in assay [2] is “stronger neurite-outgrowth promoting activity than NK-4”.

As to `CCN1C=CC(=CC=Cc2cc[n+](CC)c3ccccc23)c2ccccc21.[Br-]` [NK-36], the “intercellular ROS production (%)” value is recorded as 88% in assay [1] (125 nM), 43.5% in assay [1] (250 nM), 51% in assay [1] (500 nM) and 8.3% in assay [1] (1,000 nM). Moreover, the “inhibitory effect” value in assay [1] is reported as “suppressed the intercellular ROS production induced by hydrogen peroxide stimulation, in a concentration-dependent manner”. The entries for the “Neurite-outgrowth rate (%)” value in assay [2] (1.000 nM) and in assay [2] (200 nM) were 28.7% and 33.8%, respectively. In assay [2], the “Action” value was “◯ (When the mean neurite-outgrowth rate was 25 to 44%, it was judged to be equivalent to the positive control NK-4 (“circle”))”. Besides, in assay [2], the “neurite-outgrowth promoting activity (in words)” value is “almost equivalent neurite-outgrowth promoting rate to NK-4”.

On to `CCCCN1C=CC(=CC=Cc2cc[n+](CCCC)c3ccccc23)c2ccccc21.[I-]` [NK-44], for which the “intercellular ROS production (%)” value in assay [1] (125 nM) stood at 75.4%; in assay [1] (250 nM) it was 65.11%; in assay [1] (500 nM), 34.1%; in assay [1] (1,000 nM) it was 27.1%. Moreover, in assay [1], the “inhibitory effect” value is “suppressed the intercellular ROS production induced by hydrogen peroxide stimulation, in a concentration-dependent manner”. Moreover, the “Neurite-outgrowth rate (%)” value is 22.9% in assay [2] (1.000 nM) and 29.3% in assay [2] (200 nM). The “Action” value in assay [2] was “◯ (When the mean neurite-outgrowth rate was 25 to 44%, it was judged to be equivalent to the positive control NK-4 (“circle”))”. For the same compound, in assay [2], the “neurite-outgrowth promoting activity (in words)” value is “almost equivalent neurite-outgrowth promoting rate to NK-4”.

Source of the values: patent US20220031690A1, “ANTI-NEURODEGENERATIVE DISEASE AGENT” (Hayashibara Co., Ltd., priority 2018, published 2022).
